Measured values from ChEMBL document CHEMBL3880421, “Indazole compounds and pharmaceutical compositions for inhibiting protein kinases, and methods for their use” (2003).

Assays:
[1] = Antiproliferative activity against VEGF-stimulated HUVEC cells assessed as reduction in cell viability at 2 nM preincubated for 1 hr followed by addition of VEGF measured after 72 hrs by MTT assay; format: functional; conditions: Homo sapiens
[2] = Antiproliferative activity against VEGF-stimulated HUVEC cells assessed as reduction in cell viability at 0.5 nM preincubated for 1 hr followed by addition of VEGF measured after 72 hrs by MTT assay; format: functional; conditions: Homo sapiens

Structure (SMILES) | inhibition at 0.002 µM [1] [%] | inhibition at 0.0005 µM [2] [%]
O=C(NCCOCCO)c1ccccc1Nc1ccc2c(/C=C/c3ccccn3)n[nH]c2c1 | 24 | 10
CC(=O)NCCNC(=O)c1ccccc1Nc1ccc2c(/C=C/c3ccccn3)n[nH]c2c1 | 27 | 15
CCC(O)CNC(=O)c1ccccc1Nc1ccc2c(/C=C/c3ccccn3)n[nH]c2c1 (stereo unspecified) | 23 | 13
O=C(Nc1nnn[nH]1)c1ccccc1Nc1ccc2c(/C=C/c3ccccn3)n[nH]c2c1 | 18 to 64 | 21 to 39
O=C(NN1CCCC1)c1ccccc1Nc1ccc2c(/C=C/c3ccccn3)n[nH]c2c1 | 23 | 17
O=C(NCCC1=CCCCC1)c1ccccc1Nc1ccc2c(/C=C/c3ccccn3)n[nH]c2c1 | 86 | 24
CCOCCCNC(=O)c1ccccc1Nc1ccc2c(/C=C/c3ccccn3)n[nH]c2c1 | 97 | 44
CN1CCCC1CCNC(=O)c1ccccc1Nc1ccc2c(/C=C/c3ccccn3)n[nH]c2c1 (stereo unspecified) | 23 | 30
C=CCNC(=O)c1ccccc1Nc1ccc2c(/C=C/c3ccccn3)n[nH]c2c1 | 86 | 30
CCCCCCC(C)NC(=O)c1ccccc1Nc1ccc2c(/C=C/c3ccccn3)n[nH]c2c1 (stereo unspecified) | 63 | 35
O=C(NCC1(O)CCCCC1)c1ccccc1Nc1ccc2c(/C=C/c3ccccn3)n[nH]c2c1 | -19 | 26
N#CCCNNC(=O)c1ccccc1Nc1ccc2c(/C=C/c3ccccn3)n[nH]c2c1 | 5 | 44
COC(CNC(=O)c1ccccc1Nc1ccc2c(/C=C/c3ccccn3)n[nH]c2c1)OC | 89 | 47
NC(=O)[C@H](CO)NC(=O)c1ccccc1Nc1ccc2c(/C=C/c3ccccn3)n[nH]c2c1 | 4 | 17
CC1CCCC(NC(=O)c2ccccc2Nc2ccc3c(/C=C/c4ccccn4)n[nH]c3c2)C1 (stereo unspecified) | 59 | 69
O=C(N[C@@H]1CCCC[C@@H]1O)c1ccccc1Nc1ccc2c(/C=C/c3ccccn3)n[nH]c2c1 | 59 | 26
CC(C)OCCCNC(=O)c1ccccc1Nc1ccc2c(/C=C/c3ccccn3)n[nH]c2c1 | 99 | 34
CC(NC(=O)c1ccccc1Nc1ccc2c(/C=C/c3ccccn3)n[nH]c2c1)c1ccccc1 (stereo unspecified) | 94 | 30
NS(=O)(=O)c1ccc(CCNC(=O)c2ccccc2Nc2ccc3c(/C=C/c4ccccn4)n[nH]c3c2)cc1 | 37 | 26
N#CCONC(=O)c1ccccc1Nc1ccc2c(/C=C/c3ccccn3)n[nH]c2c1 | 2 | 16
O=C(NCP(=O)(O)O)c1ccccc1Nc1ccc2c(/C=C/c3ccccn3)n[nH]c2c1 | 6 | 32
O=C(NCCN1CCCCC1)c1ccccc1Nc1ccc2c(/C=C/c3ccccn3)n[nH]c2c1 | 19 | 5
CCCCCC(C)NC(=O)c1ccccc1Nc1ccc2c(/C=C/c3ccccn3)n[nH]c2c1 (stereo unspecified) | 14 | -1

Structure (SMILES) | inhibition at 0.002 µM [1] [%] | inhibition at 0.0005 µM [2] [%]
O=C(NCc1ccncc1)c1ccccc1Nc1ccc2c(/C=C/c3ccccn3)n[nH]c2c1 | 58 | 34
O=C(NNC(=O)c1ccccc1Nc1ccc2c(/C=C/c3ccccn3)n[nH]c2c1)c1ccccc1O | 61 | 30
O=CNNC(=O)c1ccccc1Nc1ccc2c(/C=C/c3ccccn3)n[nH]c2c1 | 29 | 28
CC(C)C(NC(=O)c1ccccc1Nc1ccc2c(/C=C/c3ccccn3)n[nH]c2c1)C(C)C | -2 | 18
CCCCC(=O)NNC(=O)c1ccccc1Nc1ccc2c(/C=C/c3ccccn3)n[nH]c2c1 | 94 | 40
CS(=O)(=O)NNC(=O)c1ccccc1Nc1ccc2c(/C=C/c3ccccn3)n[nH]c2c1 | 1 | 9
O=C(NCC1CCCO1)c1ccccc1Nc1ccc2c(/C=C/c3ccccn3)n[nH]c2c1 (stereo unspecified) | 44 | 23
O=C(NCC1CC1)c1ccccc1Nc1ccc2c(/C=C/c3ccccn3)n[nH]c2c1 | 53 to 69 | 25 to 35
CN(C)CCCCCCNC(=O)c1ccccc1Nc1ccc2c(/C=C/c3ccccn3)n[nH]c2c1 | 22 | 42
O=C(NC1CCCC1)c1ccccc1Nc1ccc2c(/C=C/c3ccccn3)n[nH]c2c1 | 96 | 43
CC(C)NC(=O)c1ccccc1Nc1ccc2c(/C=C/c3ccccn3)n[nH]c2c1 | 43 | 22
CCNC(=O)c1ccccc1Nc1ccc2c(/C=C/c3ccccn3)n[nH]c2c1 | 17 | 16
Cc1noc(NC(=O)c2ccccc2Nc2ccc3c(/C=C/c4ccccn4)n[nH]c3c2)c1C | 36 | 15
C=CCONC(=O)c1ccccc1Nc1ccc2c(/C=C/c3ccccn3)n[nH]c2c1 | 103 to 108 | 51 to 92
O=C(NO)c1ccccc1Nc1ccc2c(/C=C/c3ccccn3)n[nH]c2c1 | 25 | 7
Cn1cncc1CCNC(=O)c1ccccc1Nc1ccc2c(/C=C/c3ccccn3)n[nH]c2c1 | 0 | -6
O=C(NC(CO)CO)c1ccccc1Nc1ccc2c(/C=C/c3ccccn3)n[nH]c2c1 | 8 | 48
Cc1ncc(CNC(=O)c2ccccc2Nc2ccc3c(/C=C/c4ccccn4)n[nH]c3c2)c(N)n1 | 17 | 16
Cc1ccccc1CNC(=O)c1ccccc1Nc1ccc2c(/C=C/c3ccccn3)n[nH]c2c1 | 99 | 24
O=C(NOc1ccccc1)c1ccccc1Nc1ccc2c(/C=C/c3ccccn3)n[nH]c2c1 | 80 | 27
CCN(CC)CCCNC(=O)c1ccccc1Nc1ccc2c(/C=C/c3ccccn3)n[nH]c2c1 | -1 | 31
O=C(NCC(O)c1ccccc1)c1ccccc1Nc1ccc2c(/C=C/c3ccccn3)n[nH]c2c1 (stereo unspecified) | 55 | 12
CCC(COC)NC(=O)c1ccccc1Nc1ccc2c(/C=C/c3ccccn3)n[nH]c2c1 (stereo unspecified) | 65 | 1

Structure (SMILES) | inhibition at 0.002 µM [1] [%] | inhibition at 0.0005 µM [2] [%]
O=C(NC1CCSC1=O)c1ccccc1Nc1ccc2c(/C=C/c3ccccn3)n[nH]c2c1 (stereo unspecified) | 40 | 25
CC(=O)NNC(=O)c1ccccc1Nc1ccc2c(/C=C/c3ccccn3)n[nH]c2c1 | 10 | 4
CN(C)CC(C)(C)CNC(=O)c1ccccc1Nc1ccc2c(/C=C/c3ccccn3)n[nH]c2c1 | 5 | 38
NC(=O)[C@H]1CCCC[C@H]1NC(=O)c1ccccc1Nc1ccc2c(/C=C/c3ccccn3)n[nH]c2c1 | 39 | 21
CCN(CC)C/C=C/CNC(=O)c1ccccc1Nc1ccc2c(/C=C/c3ccccn3)n[nH]c2c1 | 29 | 10
O=C(Nn1cnnc1)c1ccccc1Nc1ccc2c(/C=C/c3ccccn3)n[nH]c2c1 | 13 | 17
CN(NC(=O)c1ccccc1Nc1ccc2c(/C=C/c3ccccn3)n[nH]c2c1)c1ccccc1 | 37 | 16
O=C(NCCC1OCCO1)c1ccccc1Nc1ccc2c(/C=C/c3ccccn3)n[nH]c2c1 | 68 | 38
CCN1CCC[C@H]1CNC(=O)c1ccccc1Nc1ccc2c(/C=C/c3ccccn3)n[nH]c2c1 | 23 | 15
COCCNC(=O)c1ccccc1Nc1ccc2c(/C=C/c3ccccn3)n[nH]c2c1 | 60 | 21
NC(=O)CNC(=O)c1ccccc1Nc1ccc2c(/C=C/c3ccccn3)n[nH]c2c1 | 4 | 6
CC1CCCCN1CCCNC(=O)c1ccccc1Nc1ccc2c(/C=C/c3ccccn3)n[nH]c2c1 (stereo unspecified) | 15 | 25
O=C(Nc1cc[nH]n1)c1ccccc1Nc1ccc2c(/C=C/c3ccccn3)n[nH]c2c1 | 25 | 20
O=C(NN1CCN(CCO)CC1)c1ccccc1Nc1ccc2c(/C=C/c3ccccn3)n[nH]c2c1 | 25 | 25
CCCCCCCCNC(=O)c1ccccc1Nc1ccc2c(/C=C/c3ccccn3)n[nH]c2c1 | 16 | 26
CC(C)(CO)CNC(=O)c1ccccc1Nc1ccc2c(/C=C/c3ccccn3)n[nH]c2c1 | 22 | 8
O=C(NC1CCCCCCC1)c1ccccc1Nc1ccc2c(/C=C/c3ccccn3)n[nH]c2c1 | 60 | 14
COC[C@@H]1CCCN1NC(=O)c1ccccc1Nc1ccc2c(/C=C/c3ccccn3)n[nH]c2c1 | 7 | 13
O=C(NNC(=O)c1ccccc1Nc1ccc2c(/C=C/c3ccccn3)n[nH]c2c1)c1ccco1 | 71 | 26
N=C(N)CNC(=O)c1ccccc1Nc1ccc2c(/C=C/c3ccccn3)n[nH]c2c1 | -1 | 7
O=C(NCCCN1CCCC1=O)c1ccccc1Nc1ccc2c(/C=C/c3ccccn3)n[nH]c2c1 | 35 | 25
O=C(NCCNc1ccccc1)c1ccccc1Nc1ccc2c(/C=C/c3ccccn3)n[nH]c2c1 | 89 | 19
